According to patent US10041085B2, “Plant type related protein, and coding gene and application thereof” (Cotton Research Institute, Chinese Academy of Agricultural …, priority 2013, dated 2018):

Legend:
Assay type in all cases: in vivo, Gossypium hirsutum
cotton variety "CRI 24" = assay: Response of cotton variety CRI 24 to brassinosteroids (hypocotyledonary axis length); conditions: 500 nM in liquid medium, cotyledon stage to five leaf stage, vs 0.2% ethanol control, average of 20 plants
Description: (§1) The mutant pagoda1 and the cotton variety“CRI 24” were identified as below, respectively: • Test Group: cultivating cotton plants of the cotyledon stage in a liquid medium containing 500 nM brassinosteroids (Sigma) to the five leaf stage, to measure the length of its hypocotyledonary axis;
(§2) Control Group: the same as the Test Group, except that brassinosteroids was replaced with an equal volume of an aqueous solution of 0.2% ethanol.
(§3) The length measurements of hypocotyledonary axis of the processed plants from respective groups (an averaged measurement of 20 plants for each group) are shown in FIG. 2. […] For the cotton variety “CRI 24”, after the treatment with brassinosteroids, the hypocotyledonary axis was prolonged by only 16%.

mutant pagoda1 [1] = assay: Shaping of cotton by local application of brassinosteroids
Text: Since brassinosteroids cannot be delivered for a long distance in a plant, a local application thereof may promote the growth of the applied part, without an impact on the far part.

mutant pagoda1 [2] = assay: Response of mutant pagoda1 to brassinosteroids (hypocotyledonary axis length); conditions: 500 nM in liquid medium, cotyledon stage to five leaf stage, vs 0.2% ethanol control, average of 20 plants
Description: as §1, §2, §3

For brassinosteroids, the “hypocotyledonary axis prolonged after treatment with brassinosteroids” value (cotton variety "CRI 24") was 16%, the “extension of the lateral branch after application to the lateral branch” value (mutant pagoda1 [1]; 500 nM applied to a lateral branch of a seedling of mutant pagoda1 (FIG. 4B)) was “significantly extended” and the “growth of the top of the seedling after application to the top” value (mutant pagoda1 [1]; 500 nM applied to the top of a seedling of mutant pagoda1 (FIG. 4A)) was “significantly promoting the growth of the top of the seeding”. The “hypocotyledonary axis prolonged after treatment with brassinosteroids” value (mutant pagoda1 [2]) was 270%.
